This is an account of results in ChEMBL document CHEMBL1201862, “PubChem BioAssay data set” (2004).

What all share (experiment): NCI tumour cell line growth inhibition, 48 h
In assay [1] the test system is SF-539.
Assay [2] has as its system HCT-15.
Assay [3] has as its system UO-31.
Assay [4] deals with SF-295.
In assay [5] the test system is HCC 2998.
Assay [6] has as its system MOLT-4.
Assay [7] deals with CAKI-1.
Assay [8] has as its system SK-OV-3.
In assay [9] the test system is HOP-62.
Assay [10] relates to TK-10.
For assay [11], the system named is NCI-H522.
The subject of assay [12] is OVCAR-3.
Assay [13] has as its system K562.
Assay [14] has as its system SNB-75.
The subject of assay [15] is OVCAR-5.
The test system of assay [16] is SK-MEL-28.
In assay [17] the test system is KM12.
Assay [18] has as its system OVCAR-4.
Assay [19] deals with HCT-116.
Assay [20] deals with IGROV-1.

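48-hour exposure; five concentrations; linearly interpolated endpoints. GI50 marks 50% less growth.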 Calls of active or inactive are those of the source. Cut-off read from the data, not from the text of the source: active = GI50 up to about 1.1 µM and inactive = higher. A value given as a limit tells only on which side of the number the result lay.

Regarding `COc1oc(C2C/C(=C/C(C)=C/C(C)=C/C(C)=C/c3ccc([N+](=O)[O-])cc3)CO2)c(C)c(=O)c1C` (stereo not given), the GI50 in assay [1] is 12000 nM (inactive); in [2], 5640 nM; in [3] it was 5200 nM (inactive); in [4], 2470 nM (inactive); in [5], 22400 nM (inactive); in [6], 1670 nM (inactive). The GI50 was 12500 nM (inactive) in assay [7]; 12900 nM (inactive) in assay [8]; 19900 nM (inactive) in [9]; 10000 nM (inactive) in assay [10]; 344 nM (active) in [11]; 11100 nM (inactive) in [12]. Further, the GI50 in assay [13] was < 10 nM (active); in assay [14] it was 15400 nM (inactive); in assay [15], 47400 nM (inactive); in [16], 6100 nM (inactive); in assay [17], 1580 nM (inactive); in assay [18], 3500 nM (inactive). In addition, the GI50 in assay [19] is < 10 nM (active); in assay [20], 13200 nM (inactive).
For `Cc1cc(C)c2c(O)cc(-c3cccc4ccccc34)nc2n1`, the GI50 in assay [1] was 703 nM (active); in assay [2], 468 nM; in assay [3], 3090 nM (inactive); in assay [4] it was 615 nM (active); in assay [5] it was 1140 nM (inactive); in [6] it was 863 nM (active). In addition, the GI50 in assay [7] was 2070 nM (inactive); in [8], 462 nM (active); in assay [9] it was 10000 nM (inactive); in assay [10] it was > 32400 nM (inactive); in assay [11], 373 nM (active); in assay [12] it was 263 nM (active). For the same compound, the GI50 in assay [13] is 386 nM (active); in assay [14], 317 nM (active); in [15] it was 2290 nM (inactive); in [16], 10800 nM (inactive); in assay [17], 406 nM (active); in [18], 4250 nM (inactive). Moreover, the GI50 in assay [19] was 403 nM (active); in assay [20], 1490 nM (inactive).
